# What was measured:
# T47D = assay: Cytotoxicity against human T47D cells assessed as cell growth at 10 uM after 48 hrs by SRB assay relative to control; format: functional; conditions: read-out: Activity
# MDA-MB-231 [1] = assay: Cytotoxicity against human MDA-MB-231 cells assessed as cell growth at 10 uM after 48 hrs by SRB assay relative to control; format: functional; conditions: MDA-MB-231, 48 h, read-out: Activity
# [2] = Cytotoxicity against human PC3 cells assessed as cell growth at 10 uM after 48 hrs by SRB assay relative to control; format: functional; conditions: PC-3, 48 h, read-out: Activity
# MCF7 = assay: Cytotoxicity against human MCF7 cells assessed as cell growth at 10 uM after 48 hrs by SRB assay relative to control; format: functional; conditions: MCF7, 48 h, read-out: Activity
# TK-10 = assay: Cytotoxicity against human TK10 cells assessed as cell growth at 10 uM after 48 hrs by SRB assay relative to control; format: functional; conditions: TK-10, 48 h, read-out: Activity
# ACHN = assay: Cytotoxicity against human ACHN cells assessed as cell growth at 10 uM after 48 hrs by SRB assay relative to control; format: functional; conditions: read-out: Activity
# 786-0 = assay: Cytotoxicity against human 786-0 cells assessed as cell growth at 10 uM after 48 hrs by SRB assay relative to control; format: functional; conditions: 786-0, 48 h, read-out: Activity
# A498 = assay: Cytotoxicity against human A498 cells assessed as cell growth at 10 uM after 48 hrs by SRB assay relative to control; format: functional; conditions: A498, 48 h, read-out: Activity
# [3] = Cytotoxicity against human SKOV3 cells assessed as cell growth at 10 uM after 48 hrs by SRB assay relative to control; format: functional; conditions: SK-OV-3, 48 h, read-out: Activity
# [4] = Cytotoxicity against human NCI-ADR-RES cells assessed as cell growth at 10 uM after 48 hrs by SRB assay relative to control; format: functional; conditions: read-out: Activity
# [5] = Cytotoxicity against human OVCAR8 cells assessed as cell growth at 10 uM after 48 hrs by SRB assay relative to control; format: functional; conditions: OVCAR-8, 48 h, read-out: Activity
# [6] = Cytotoxicity against human OVCAR3 cells assessed as cell growth at 10 uM after 48 hrs by SRB assay relative to control; format: functional; conditions: OVCAR-3, 48 h, read-out: Activity
# IGROV-1 = assay: Cytotoxicity against human IGROV1 cells assessed as cell growth at 10 uM after 48 hrs by SRB assay relative to control; format: functional; conditions: IGROV-1, 48 h, read-out: Activity
# [7] = Cytotoxicity against human UACC257 cells assessed as cell growth at 10 uM after 48 hrs by SRB assay relative to control; format: functional; conditions: UACC-257, 48 h, read-out: Activity
# SK-MEL-5 = assay: Cytotoxicity against human SK-MEL-5 cells assessed as cell growth at 10 uM after 48 hrs by SRB assay relative to control; format: functional; conditions: SK-MEL-5, 48 h, read-out: Activity
# SK-MEL-28 = assay: Cytotoxicity against human SK-MEL-28 cells assessed as cell growth at 10 uM after 48 hrs by SRB assay relative to control; format: functional; conditions: SK-MEL-28, 48 h, read-out: Activity
# SK-MEL-2 = assay: Cytotoxicity against human SK-MEL-2 cells assessed as cell growth at 10 uM after 48 hrs by SRB assay relative to control; format: functional; conditions: SK-MEL-2, 48 h, read-out: Activity
# MDA-MB-435 = assay: Cytotoxicity against human MDA-MB-435 cells assessed as cell growth at 10 uM after 48 hrs by SRB assay relative to control; format: functional; conditions: MDA-MB-435, 48 h, read-out: Activity
# M14 = assay: Cytotoxicity against human M14 cells assessed as cell growth at 10 uM after 48 hrs by SRB assay relative to control; format: functional; conditions: M14, 48 h, read-out: Activity
# U-251 = assay: Cytotoxicity against human U251 cells assessed as cell growth at 10 uM after 48 hrs by SRB assay relative to control; format: functional; conditions: U-251, 48 h, read-out: Activity
# LOX IMVI = assay: Cytotoxicity against human LOXIMVI cells assessed as cell growth at 10 uM after 48 hrs by SRB assay relative to control; format: functional; conditions: read-out: Activity
# SNB-75 = assay: Cytotoxicity against human SNB75 cells assessed as cell growth at 10 uM after 48 hrs by SRB assay relative to control; format: functional; conditions: SNB-75, 48 h, read-out: Activity
# SF-539 = assay: Cytotoxicity against human SF539 cells assessed as cell growth at 10 uM after 48 hrs by SRB assay relative to control; format: functional; conditions: SF-539, 48 h, read-out: Activity
# KM12 = assay: Cytotoxicity against human KM12 cells assessed as cell growth at 10 uM after 48 hrs by SRB assay relative to control; format: functional; conditions: KM12, 48 h, read-out: Activity
# HT-29 = assay: Cytotoxicity against human HT-29 cells assessed as cell growth at 10 uM after 48 hrs by SRB assay relative to control; format: functional; conditions: HT-29, 48 h, read-out: Activity
# [8] = Cytotoxicity against human HCT15 cells assessed as cell growth at 10 uM after 48 hrs by SRB assay relative to control; format: functional; conditions: HCT-15, 48 h, read-out: Activity
# HCC 2998 = assay: Cytotoxicity against human HCC2998 cells assessed as cell growth at 10 uM after 48 hrs by SRB assay relative to control; format: functional; conditions: HCC 2998, 48 h, read-out: Activity
# NCI-H322M = assay: Cytotoxicity against human NCI-H322M cells assessed as cell growth at 10 uM after 48 hrs by SRB assay relative to control; format: functional; conditions: read-out: Activity
# NCI-H226 = assay: Cytotoxicity against human NCI-H226 cells assessed as cell growth at 10 uM after 48 hrs by SRB assay relative to control; format: functional; conditions: NCI-H226, 48 h, read-out: Activity
# HOP-62 = assay: Cytotoxicity against human HOP62 cells assessed as cell growth at 10 uM after 48 hrs by SRB assay relative to control; format: functional; conditions: HOP-62, 48 h, read-out: Activity
# A549 = assay: Cytotoxicity against human A549 cells assessed as cell growth at 10 uM after 48 hrs by SRB assay relative to control; format: functional; conditions: A549, 48 h, read-out: Activity
# RPMI-8226 = assay: Cytotoxicity against human RPMI8226 cells assessed as cell growth at 10 uM after 48 hrs by SRB assay relative to control; format: functional; conditions: RPMI-8226, 48 h, read-out: Activity
# K562 = assay: Cytotoxicity against human K562 cells assessed as cell growth at 10 uM after 48 hrs by SRB assay relative to control; format: functional; conditions: K562, 48 h, read-out: Activity
# MOLT-4 = assay: Cytotoxicity against human MOLT4 cells assessed as cell growth at 10 uM after 48 hrs by SRB assay relative to control; format: functional; conditions: MOLT-4, 48 h, read-out: Activity
# MDA-MB-231 [9] = assay: Growth inhibition of human MDA-MB-231 cells after 72 hrs by MTT assay; format: functional, cell-based; conditions: MDA-MB-231, 72 h
# MDA-MB-231 [10] = assay: Antimigratory activity against human MDA-MB-231 cells after 24 hrs by wound-healing assay; format: functional, cell-based; conditions: MDA-MB-231, 24 h
Compound,growth at 10 µM (T47D) [%],growth at 10 µM (MDA-MB-231 [1]) [%],growth at 10 µM [2] [%],growth at 10 µM (MCF7) [%],growth at 10 µM (TK-10) [%],growth at 10 µM (ACHN) [%],growth at 10 µM (786-0) [%],growth at 10 µM (A498) [%],growth at 10 µM [3] [%],growth at 10 µM [4] [%],growth at 10 µM [5] [%],growth at 10 µM [6] [%],growth at 10 µM (IGROV-1) [%],growth at 10 µM [7] [%],growth at 10 µM (SK-MEL-5) [%],growth at 10 µM (SK-MEL-28) [%],growth at 10 µM (SK-MEL-2) [%],growth at 10 µM (MDA-MB-435) [%],growth at 10 µM (M14) [%],growth at 10 µM (U-251) [%],other results
COc1ccc(CCNCc2c(C)ccc([C@@H](C)CCC=C(C)C)c2O)cc1OC,69.8,87.7,71,85.1,90.1,87.1,80.4,53.4,94.8,83.4,80.4,90.1,68.8,78.7,78,104,99.9,97.8,91,76.7,growth at 10 µM (LOX IMVI): 73.7%; growth at 10 µM (SNB-75): 66.1%; growth at 10 µM (SF-539): 88.9%; growth at 10 µM (KM12): 89.9%; growth at 10 µM (HT-29): 48.9%; growth at 10 µM [8]: 92.2%; growth at 10 µM (HCC 2998): 15.7%; growth at 10 µM (NCI-H322M): 99%; growth at 10 µM (NCI-H226): 78.3%; growth at 10 µM (HOP-62): 89%; growth at 10 µM (A549): 85.8%; growth at 10 µM (RPMI-8226): 55.8%; growth at 10 µM (K562): 44.5%; growth at 10 µM (MOLT-4): 68.2%; IC50 (MDA-MB-231 [9]): > 50 µM; IC50 (MDA-MB-231 [10]): > 20 µM
CC(C)=CCC[C@H](C)c1ccc(C)c(CNCCCCCO)c1O,99.1,96.5,79.5,79.4,92.2,97.7,87.3,82.6,99.4,86.8,98,84.2,91.1,93.2,84.9,112,97.6,95,94.3,82.9,growth at 10 µM (LOX IMVI): 83.1%; growth at 10 µM (SNB-75): 77.2%; growth at 10 µM (SF-539): 92.1%; growth at 10 µM (KM12): 97.3%; growth at 10 µM (HT-29): 55%; growth at 10 µM [8]: 86.1%; growth at 10 µM (HCC 2998): 73%; growth at 10 µM (NCI-H322M): 104%; growth at 10 µM (NCI-H226): 99.6%; growth at 10 µM (HOP-62): 88.4%; growth at 10 µM (A549): 91.5%; growth at 10 µM (RPMI-8226): 85.3%; growth at 10 µM (K562): 60.2%; growth at 10 µM (MOLT-4): 83.1%; IC50 (MDA-MB-231 [9]): 10.7 µM; IC50 (MDA-MB-231 [10]): > 20 µM
CC(C)=CCC[C@H](C)c1ccc(C)c(CNCC2CCNCC2)c1O,88,69,85,78.2,89.4,81,81.2,65,83,84,85,83,83.4,64.2,73,91,102,13.9,46.7,57,growth at 10 µM (LOX IMVI): 37.1%; growth at 10 µM (SNB-75): 71%; growth at 10 µM (SF-539): 84%; growth at 10 µM (KM12): 84%; growth at 10 µM (HT-29): 8.29%; growth at 10 µM [8]: 79%; growth at 10 µM (HCC 2998): -3.94%; growth at 10 µM (NCI-H322M): 80%; growth at 10 µM (NCI-H226): 72%; growth at 10 µM (HOP-62): 84%; growth at 10 µM (A549): 86%; growth at 10 µM (RPMI-8226): 61.7%; growth at 10 µM (K562): 2.65%; growth at 10 µM (MOLT-4): 77%; IC50 (MDA-MB-231 [9]): 18.3 µM; IC50 (MDA-MB-231 [10]): > 20 µM
